Tested on: HT-29 cells
Experiment: HT-29 necroptosis cell viability assay (TNF-α/SMAC mimetic/zVAD-FMK, CellTiter-Glo)
Assay type: cell-based
Conditions: Homo sapiens, HT-29, HT-29 cells, necroptosis induced by TNF-α/SMAC mimetic/zVAD-FMK, CellTiter-Glo; read-out: Activity (IC50 class)
How it was run: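 Necroptosis was triggered by TNF-α (10 ng/ml), SMAC mimetic (6 μM) and zVAD-FMK (10 μM) in serum-free medium during 20 h compound exposure (10 concentrations, threefold steps) of HT-29 cells. IC50 from duplicate dose-responses uses CellTiter-Glo ATP luminescence as viability read-out.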

Structure (SMILES) | IC50
Cc1ncn(Cc2ccc(-n3ncn(Cc4c(F)cccc4F)c3=O)cc2)c1C#N [Example 657, 3-[[4-[4-[(2,6-difluorophenyl)methyl]-5-oxo-1,2,4-triazol-1-yl]phenyl]methyl]-5-methyl-imidazole-4-carbonitrile] | < 100 nM
Nc1ccccc1Oc1ccc(-n2nc(Cl)n(Cc3ccccc3)c2=O)cc1 [Example 679, 2-(4-(2-aminophenoxy)phenyl)-4-benzyl-5-chloro-2,4-dihydro-3H-1,2,4-tirazol-3-one] | < 100 nM

Same assay, conditions: Homo sapiens, HT-29, HT-29 necroptosis cell viability assay; class symbols for IC50; read-out: Activity

Structure (SMILES) | IC50
O=c1n(Cc2c(F)cccc2F)cnn1-c1ccc(Oc2ccnc(N3CC(OCC4CC4)C3)c2)cc1 [Example 483, 2-(4-((2-(3-(cyclopropylmethoxy)azetidin-1-yl)pyridin-4-yl)oxy)phenyl)-4-(2,6-difluorobenzyl)-2,4-dihydro-3H-1,2,4-triazol-3-one] | 100 to 1000 nM
Cc1nc(C(=O)N2CCOCC2)sc1Oc1ccc(-n2nc3n(c2=O)[C@H](c2ccccc2)CC3)cc1F (single isomer, unassigned) [Example 601] | < 100 nM
Cc1nc(C(C)N)sc1Oc1ccc(-n2ncn(Cc3c(F)cccc3F)c2=O)cc1F (stereo not drawn) [Example 163, 2-(4-((2-(1-aminoethyl)-4-methylthiazol-5-yl)oxy)-3-fluorophenyl)-4-(2,6-difluorobenzyl)-2,4-dihydro-3H-1,2,4-triazol-3-one] | < 100 nM
Cc1nc(N2CC(C)(C#N)C2)sc1C(=O)c1ccc(-n2ncn(Cc3c(F)cccc3F)c2=O)cc1 [Example 510, 1-(5-(4-(4-(2,6-difluorobenzyl)-5-oxo-4,5-dihydro-1H-1,2,4-triazol-1-yl)benzoyl)-4-methylthiazol-2-yl)-3-methylazetidine-3-carbonitrile] | 100 to 1000 nM
Cc1ncc(C#N)n1Cc1ccc(-n2ncn(Cc3c(F)cccc3F)c2=O)cc1 [Example 185, 1-(4-(4-(2,6-difluorobenzyl)-5-oxo-4,5-dihydro-1H-1,2,4-triazol-1-yl)benzyl)-2-methyl-1H-imidazole-5-carbonitrile] | 100 to 1000 nM
CCOC(=O)c1c(C)cn(Cc2ccc(-n3ncn(Cc4c(F)cccc4F)c3=O)cc2F)c1C [Example 208, 1-(4-(4-(2,6-difluorobenzyl)-5-oxo-4,5-dihydro-1H-1,2,4-triazol-1-yl)-2-fluorobenzyl)-2,4-dimethyl-1H-pyrrole-3-carboxylate] | < 100 nM
Cc1nc(C(N)=O)sc1Oc1ccc(-n2ncn(Cc3ccccc3F)c2=O)cc1F [Example 562, 5-(2-fluoro-4-(4-(2-fluorobenzyl)-5-oxo-4,5-dihydro-1H-1,2,4-triazol-1-yl)phenoxy)-4-methylthiazole-2-carboxamide] | < 100 nM
CCOC(=O)c1nc(C)nn1Cc1ccc(-n2ncn(Cc3c(F)cccc3F)c2=O)cc1F [Example 201] | 100 to 1000 nM
COC(=O)c1ncsc1Oc1ccc(-n2ncn(Cc3c(F)cccc3F)c2=O)cc1F [Example 128, methyl 5-(4-(4-(2,6-difluorobenzyl)-5-oxo-4,5-dihydro-1H-1,2,4-triazol-1-yl)-2-fluorophenoxy)thiazole-4-carboxylate] | 100 to 1000 nM
Cc1nc(CC#N)c(C)n1Cc1ccc(-n2ncn(Cc3c(F)cccc3F)c2=O)cc1F [Example 142, 2-(1-(4-(4-(2,6-difluorobenzyl)-5-oxo-4,5-dihydro-1H-1,2,4-triazol-1-yl)-2-fluorobenzyl)-2,5-dimethyl-1H-imidazol-4-yl)acetonitrile] | 1000 to 10000 nM
Cc1nc(Br)sc1Oc1ccc(-n2ncn(Cc3cc(Cl)ccn3)c2=O)cc1F [Example 573, 2-(4-((2-bromo-4-methylthiazol-5-yl)oxy)-3-fluorophenyl)-4-((4-chloropyridin-2-yl)methyl)-2,4-dihydro-3H-1,2,4-triazol-3-one] | 100 to 1000 nM
Cc1nc(CO)c(Oc2ccc(-n3ncn(Cc4c(F)cccc4F)c3=O)cc2)s1 [Example 146] | 100 to 1000 nM
Cc1ccc(C)n1Cc1ccc(-n2ncn(Cc3c(F)cccc3F)c2=O)cc1 [Example 207, 4-(2,6-difluorobenzyl)-2-(4-((2,5-dimethyl-1H-pyrrol-1-yl)methyl)phenyl)-2,4-dihydro-3H-1,2,4-triazol-3-one] | < 100 nM
CCOC(=O)c1cc(C)n(Cc2ccc(-n3ncn(Cc4c(F)cccc4F)c3=O)cc2F)n1 [Example 198, ethyl 1-(4-(4-(2,6-difluorobenzyl)-5-oxo-4,5-dihydro-1H-1,2,4-triazol-1-yl)-2-fluorobenzyl)-5-methyl-1H-pyrazole-3-carboxylate] | 100 to 1000 nM
Cc1nc(C(=O)NC2COC2)sc1Oc1ccc(-n2ncn(Cc3ccccc3F)c2=O)cc1F [Example 603, 5-(2-fluoro-4-(4-(2-fluorobenzyl)-5-oxo-4,5-dihydro-1H-1,2,4-triazol-1-yl)phenoxy)-4-methyl-N-(oxetan-3-yl)thiazole-2-carboxamide] | < 100 nM
COC(=O)c1nc(C)sc1Oc1ccc(-n2ncn(Cc3c(F)cccc3F)c2=O)cc1F [Example 127, methyl 5-(4-(4-(2,6-difluorobenzyl)-5-oxo-4,5-dihydro-1H-1,2,4-triazol-1-yl)-2-fluorophenoxy)-2-methylthiazole-4-carboxylate] | < 100 nM
Cc1nc(C(=O)NO)sc1Oc1ccc(-n2ncn(Cc3ccccc3F)c2=O)cc1F [Example 594, 5-(2-fluoro-4-(4-(2-fluorobenzyl)-5-oxo-4,5-dihydro-1H-1,2,4-triazol-1-yl)phenoxy)-N-hydroxy-4-methylthiazole-2-carboxamide] | 100 to 1000 nM
CC1(Nc2cc(Oc3ccc(-n4ncn(Cc5c(F)cccc5F)c4=O)cc3)ccn2)CC1 [Example 532, 4-(2,6-difluorobenzyl)-2-(4-((2-((1-methylcyclopropyl)amino)pyridin-4-yl)oxy)phenyl)-2,4-dihydro-3H-1,2,4-triazol-3-one] | < 100 nM
Cc1nc(C#N)sc1Oc1ccc(-n2ncn(Cc3cc(F)ccc3F)c2=O)cc1F [Example 572, 5-(4-(4-(2,5-difluorobenzyl)-5-oxo-4,5-dihydro-1H-1,2,4-triazol-1-yl)-2-fluorophenoxy)-4-methylthiazole-2-carbonitrile] | < 100 nM
Cc1nc(CC#N)cn1Cc1ccc(-n2ncn(Cc3c(F)cccc3F)c2=O)cc1F [Example 141, 2-(1-(4-(4-(2,6-difluorobenzyl)-5-oxo-4,5-dihydro-1H-1,2,4-triazol-1-yl)-2-fluorobenzyl)-2-methyl-1H-imidazol-4-yl)acetonitrile] | 100 to 1000 nM

Same assay, conditions: Homo sapiens, HT-29, HT-29 necroptosis cell viability, IC50 class symbols; read-out: Activity

Structure (SMILES) | IC50
CC(C)(C)Oc1cc(Oc2ccc(-n3ncn(Cc4c(F)cccc4F)c3=O)cc2)ccn1 [Example 388, 2-(4-((2-(tert-butoxy)pyridin-4-yl)oxy)phenyl)-4-(2,6-difluorobenzyl)-2,4-dihydro-3H-1,2,4-triazol-3-one] | 100 to 1000 nM
CC1(C#N)CN(c2nccc(Oc3ccc(-n4ncn(Cc5c(F)cccc5F)c4=O)cc3Cl)c2Cl)C1 [Example 256, 1-(3-chloro-4-(2-chloro-4-(4-(2,6-difluorobenzyl)-5-oxo-4,5-dihydro-1H-1,2,4-triazol-1-yl)phenoxy)pyridin-2-yl)-3-methylazetidine-3-carbonitrile] | < 100 nM
CC1(O)CN(c2cc(Oc3ccc(-n4ncn(Cc5c(F)cccc5F)c4=O)cc3)ccn2)C1 [Example 329, 4-(2,6-difluorobenzyl)-2-(4-((2-(3-hydroxy-3-methylazetidin-1-yl)pyridin-4-yl)oxy)phenyl)-2,4-dihydro-3H-1,2,4-triazol-3-one] | < 100 nM
C[C@H]1[C@@H](O)CN1c1cc(Oc2ccc(-n3nc4n(c3=O)[C@H](c3ccccc3)CC4)cc2F)c(F)cn1 (single isomer, unassigned) [Example 258] | < 100 nM
CC1(N)CN(c2cc(Oc3ccc(-n4ncn(Cc5c(F)cccc5F)c4=O)cc3F)c(F)cn2)C1 [Example 424, 2-(4-((2-(3-amino-3-methylazetidin-1-yl)-5-fluoropyridin-4-yl)oxy)-3-fluorophenyl)-4-(2,6-difluorobenzyl)-2,4-dihydro-3H-1,2,4-triazol-3-one] | 100 to 1000 nM
Cc1cccnc1Cn1cnn(-c2ccc(Oc3sc(C(C)(C)O)nc3C)c(F)c2)c1=O [Example 464, 2-(3-fluoro-4-((2-(2-hydroxypropan-2-yl)-4-methylthiazol-5-yl)oxy)phenyl)-4-((3-methylpyridin-2-yl)methyl)-2,4-dihydro-3H-1,2,4-triazol-3-one] | 100 to 1000 nM
CN(CC1CCCCO1)c1cc(Oc2ccc(-n3ncn(Cc4c(F)cccc4F)c3=O)cc2)ccn1 (stereo not drawn) [Example 408, 4-(2,6-difluorobenzyl)-2-(4-((2-(methyl((tetrahydro-2H-pyran-2-yl)methyl)amino)pyridin-4-yl)oxy)phenyl)-2,4-dihydro-3H-1,2,4-triazol-3-one] | < 100 nM
N#CC1(CO)CN(c2cc(Oc3ccc(-n4ncn(Cc5c(F)cccc5F)c4=O)cc3)ccn2)C1 [Example 278, 1-(4-(4-(4-(2,6-difluorobenzyl)-5-oxo-4,5-dihydro-1H-1,2,4-triazol-1-yl)phenoxy)pyridin-2-yl)-3-(hydroxymethyl)azetidine-3-carbonitrile] | 100 to 1000 nM

Same assay, conditions: Homo sapiens; HT-29 cells stimulated with TNF-α (10 ng/ml), SMAC mimetic (6 μM) and zVAD-FMK (10 μM); 20 hours; CellTiter-Glo ATP luminescence; geometric mean IC50 from 10 points; read-out: Activity

Structure (SMILES) | IC50
Cc1nc(N2C[C@@H](N)[C@@H]2C)sc1Oc1ccc(-n2ncn(Cc3c(F)cccc3F)c2=O)cc1 [Example 69, 2-(4-((2-((2S,3R)-3-amino-2-methylazetidin-1-yl)-4-methylthiazol-5-yl)oxy)phenyl)-4-(2,6-difluorobenzyl)-2,4-dihydro-3H-1,2,4-triazol-3-one] | < 100 nM
NC(=O)c1nnc(Oc2ccc(-n3nc4n(c3=O)[C@H](c3ccccc3)CC4)cc2F)o1 (single isomer, unassigned) [Example 691] | 1000 to 10000 nM
Cc1nc(C(=O)NC2CCOC2)sc1Oc1ccc(-n2nc3n(c2=O)[C@H](c2ccccc2)CC3)cc1F (single isomer, unassigned) [Example 18] | < 100 nM
